Laboratory results reported in US10687532B2, “Substituted oxadiazoles for combating phytopathogenic fungi” (BASF SE, priority 2015, dated 2020).

| melting point | Compound |
| --- | --- |
| 183 °C | O=C(Nc1ccc(-c2noc(C(F)(F)F)n2)cc1)C1CCC1 [Ex-2, N-[4-[5-(trifluoromethyl)-1,2,4-oxadiazol-3-yl]phenyl]cyclobutanecarboxamide] |
| 98 °C | CN(C(=O)C1CC1)c1ccc(-c2noc(C(F)(F)F)n2)cc1 [Ex-7, N-methyl-N-[4-[5-(trifluoromethyl)-1,2,4-oxadiazol-3-yl]phenyl]cyclopropanecarboxamide] |
